Values of other authors as cited in patent US20090263333A1, “Pharmaceutical compounds and compositions” (Cipla Limited, priority 2004, published 2009).

Details: dose comparison with racemic salbutamol

CC(C)(C)NC[C@H](O)c1ccc(O)c(CO)c1 [Levosalbutamol, levosalbutamol]
efficacy relative to racemic salbutamol: comparable efficacy at nearly one-fourth the dose of racemic salbutamol
